Measured values as given in publication PMC6952414 (Nature Communications, 2020).
Several values for one entry are separate records, joined by “and”; a condition that tells them apart may be missing. Equal entries are not always repeated.

Test system: HA
Format: binding, IAV H1N1 strain A/Puerto Rico/8/1934 (PR8)

In the case of RLPVNHH, the HA x ratio is reported as 0.45 and 0.68 and 0.79.

RHRDNHH was tested, and the HA x ratio was 1.05 and 1.04 and 0.77.

Work on RRRVNTH yielded an HA x ratio of 0.88.

RRRVNSH gave an HA x ratio of 0.86.

RRRVNHK showed an HA x ratio of 0.59.

In the case of RRRPNHH, the HA x ratio is reported as 0.36.

For RHPVNHH, the HA x ratio was 0.90 and 1.23 and 0.70.

In the case of RIRVNHH, the HA x ratio is reported as 1.38.

With RRRVNEH the HA x ratio was 0.49.

Substance RRRVNMH has an HA x ratio of 1.22.

RMRVNHH was tested, and the HA x ratio was 0.90.

RVPVNHH was tested, and the HA x ratio was 1.05 and 1.07 and 0.75.

For RRRVRHH, the HA x ratio was 1.24.

For RRSNNHH, the HA x ratio was 0.73 and 0.74 and 0.37.

RRRVNHA was tested, and the HA x ratio was 0.56.

RRRINHH gave an HA x ratio of 0.39.

In the case of RRPVNHS, the HA x ratio is reported as 1.08 and 1.99 and 1.46.

RSPVNHH was tested, and the HA x ratio was 1.07 and 0.89 and 0.72.

With RRRVNAH the HA x ratio was 0.91.

HRRVNHH was tested, and the HA x ratio was 0.38.

In the case of YRRVNHH, the HA x ratio is reported as 1.34.

Substance RRRVNIH has an HA x ratio of 0.95.

In the case of RERVNHH, the HA x ratio is reported as 0.54.

RRRVNHM gave an HA x ratio of 0.42.

RRRVAHH gave an HA x ratio of 1.62.

RRRVNRH was tested, and the HA x ratio was 0.73.

In the case of RRPKNHH, the HA x ratio is reported as 0.76 and 0.64 and 0.51.

RRRVNHW showed an HA x ratio of 0.44.

Substance DRRVNHH has an HA x ratio of 0.65.

RFRVNHH showed an HA x ratio of 0.56.

In the case of RRRDNHV, the HA x ratio is reported as 1.05 and 1.22 and 1.16.

Substance RRRVNHY has an HA x ratio of 0.36.

For RPPVNHH, the HA x ratio was 0.98 and 0.96 and 0.50.

Work on RRRVNKH yielded an HA x ratio of 1.27.

Work on RSRVNHH yielded an HA x ratio of 2.42.

Substance RRWVNHH has an HA x ratio of 0.66.

RFPVNHH was tested, and the HA x ratio was 1.20 and 1.08 and 1.00.

RRAVNHH showed an HA x ratio of 0.96.

Work on LRRVNHH yielded an HA x ratio of 0.80.

Substance RRRVDHH has an HA x ratio of 1.09.

In the case of NRRVNHH, the HA x ratio is reported as 0.43.

In the case of QRRVNHH, the HA x ratio is reported as 0.78.

Substance RRRVNHG has an HA x ratio of 1.43.

With RLRVNHH the HA x ratio was 1.05.

RVRVNHH gave an HA x ratio of 0.68.

For RRRLNHH, the HA x ratio was 0.42.

In the case of RRRMNHH, the HA x ratio is reported as 2.13.

Substance RRRTNHH has an HA x ratio of 0.28.

For RRRDNHA, the HA x ratio was 1.07 and 0.73 and 0.58.

For RNPVNHH, the HA x ratio was 1.21 and 1.04 and 0.76.

RTRVNHH gave an HA x ratio of 2.79.

RNRVNHH gave an HA x ratio of 1.11.

SRRVNHH gave an HA x ratio of 0.49.

For RARDNHH, the HA x ratio was 0.61 and 0.73 and 0.72.

Work on RRRVNHL yielded an HA x ratio of 0.48.

RQRVNGG was tested, and the HA x ratio was 0.75.

Work on RRRVNHN yielded an HA x ratio of 0.66.

RRPVNHQ was tested, and the HA x ratio was 1.37 and 1.26 and 0.94.

For RRRVNDH, the HA x ratio was 0.72.

RRPVNHY was tested, and the HA x ratio was 1.43 and 0.76 and 0.77.

RRPRNHH was tested, and the HA x ratio was 0.65 and 0.78 and 0.39.

For RQRDNHH, the HA x ratio was 1.02 and 1.69 and 1.17.

For RRRVNWH, the HA x ratio was 0.80.

RRRVHHH gave an HA x ratio of 0.35.

For RRHVNHH, the HA x ratio was 1.09.

Substance RRRNNHH has an HA x ratio of 2.20.

With RRRVLHH the HA x ratio was 1.21.

In the case of RRRKNHH, the HA x ratio is reported as 1.55.

With RRRVNPH the HA x ratio was 0.89.

RRRVKHH gave an HA x ratio of 1.27.

RRRVNVH gave an HA x ratio of 0.80.

In the case of RRSMNHH, the HA x ratio is reported as 0.75 and 0.55.

Substance RRRGNHH has an HA x ratio of 0.46.

For RQPVNHH, the HA x ratio was 0.63 and 0.91 and 1.08.

RRLVNHH showed an HA x ratio of 0.69.

Work on RRRVNHV yielded an HA x ratio of 0.49.

Work on RRRVPHH yielded an HA x ratio of 0.90.

With RRHDNHH the HA x ratio was 1.24 and 1.02 and 1.09.

In the case of RRSKNHH, the HA x ratio is reported as 1.10 and 0.79 and 1.25.

In the case of TRRVNHH, the HA x ratio is reported as 0.39.

In the case of RRRVWHH, the HA x ratio is reported as 0.57.

WRRVNHH showed an HA x ratio of 0.56.

For RRRVYHH, the HA x ratio was 1.10.

RRRSNHH gave an HA x ratio of 0.40.

For RRRVEHH, the HA x ratio was 0.64.

RRFVNHH was tested, and the HA x ratio was 2.86.

With RPRVNHH the HA x ratio was 0.60.

RRRDNHP was tested, and the HA x ratio was 0.54 and 0.61 and 0.45.

RMRDNHH was tested, and the HA x ratio was 0.77 and 0.40 and 0.59.

Substance RRRVNYH has an HA x ratio of 1.55.

RRRDNHQ was tested, and the HA x ratio was 0.36 and 0.45 and 0.67.

RRRQNHH gave an HA x ratio of 1.81.

Substance RRRVNHT has an HA x ratio of 1.23.

RKPVNHH was tested, and the HA x ratio was 1.27 and 1.55 and 1.97.

With RRRVFHH the HA x ratio was 0.71.

RRRYNHH gave an HA x ratio of 0.39.

With RRQVNHH the HA x ratio was 2.55.

For RRRHNHH, the HA x ratio was 0.30.

Work on RRRVNHI yielded an HA x ratio of 0.72.

RGRDNHH was tested, and the HA x ratio was 0.78 and 1.32 and 1.08.

In the case of RRRDNHL, the HA x ratio is reported as 0.92 and 0.83 and 0.51.

With RRRVGHH the HA x ratio was 0.56.

For RHRVNHH, the HA x ratio was 1.57.

With RRYDNHH the HA x ratio was 1.25 and 0.92 and 1.56.

With FRRVNHH the HA x ratio was 0.71.

For RRRVNHD, the HA x ratio was 0.46.

For RRRVNHR, the HA x ratio was 1.48.

Substance RRRVQHH has an HA x ratio of 0.71.

In the case of RKRDNHH, the HA x ratio is reported as 1.05 and 0.70.

RRRANHH was tested, and the HA x ratio was 0.36.

In the case of RRRVNFH, the HA x ratio is reported as 0.93.

RGPVNHH was tested, and the HA x ratio was 1.56 and 1.10 and 0.92.

With RGRVNHH the HA x ratio was 1.41.

Substance RRIVNHH has an HA x ratio of 1.20.

RRSFNHH was tested, and the HA x ratio was 0.82 and 0.91 and 0.46.

With RRMVNHH the HA x ratio was 0.79.

Substance RRRVNHQ has an HA x ratio of 0.72.

In the case of RRKVNHH, the HA x ratio is reported as 0.82.

RRPNNHH was tested, and the HA x ratio was 1.47 and 1.90 and 1.08.

For RRSRNHH, the HA x ratio was 1.02 and 0.86 and 0.77.

For RRSPNHH, the HA x ratio was 0.39 and 0.47 and 0.43.

For ERRVNHH, the HA x ratio was 0.60.

For RRNVNHH, the HA x ratio was 0.61.

Work on IRRVNHH yielded an HA x ratio of 0.41.

Substance RRRWNHH has an HA x ratio of 0.30.

RRRVIHH was tested, and the HA x ratio was 0.63.

With RRPVNHE the HA x ratio was 1.47 and 1.30 and 1.11.

In the case of RRRVNHE, the HA x ratio is reported as 1.77.

RYRVNHH showed an HA x ratio of 1.46.

In the case of VRRVNHH, the HA x ratio is reported as 0.98.

With RIPVNHH the HA x ratio was 1.46 and 1.18 and 0.86.

Substance RDRVNHH has an HA x ratio of 0.80.

With RWRDNHH the HA x ratio was 1.15 and 1.05 and 0.76.

RWRVNHH gave an HA x ratio of 1.99.

RKRVNHH showed an HA x ratio of 1.35.

In the case of RRRVNQH, the HA x ratio is reported as 0.65.

RTRDNHH was tested, and the HA x ratio was 1.38 and 1.50.

RRTVNHH was tested, and the HA x ratio was 1.15.

For RRNDNHH, the HA x ratio was 0.51 and 0.36 and 0.50.

Work on PRRVNHH yielded an HA x ratio of 0.56.

With RRPLNHH the HA x ratio was 0.82 and 0.76 and 0.42.

RRDVNHH showed an HA x ratio of 0.60.

RRRVNLH showed an HA x ratio of 1.09.

RARVNHH showed an HA x ratio of 1.61.

RRRRNHH gave an HA x ratio of 1.09.

Substance RRRVSHH has an HA x ratio of 0.61.

RRRENHH was tested, and the HA x ratio was 0.59.

With RREVNHH the HA x ratio was 3.11.

RRRVNGH gave an HA x ratio of 0.70.

In the case of RRVVNHH, the HA x ratio is reported as 0.57.

For RRGVNHH, the HA x ratio was 2.40.

RRYVNHH showed an HA x ratio of 0.69.

With RRRFNHH the HA x ratio was 0.78.

RRRVNHP gave an HA x ratio of 1.63.

RRRVTHH gave an HA x ratio of 0.46.

In the case of RRADNHH, the HA x ratio is reported as 0.49 and 0.70 and 0.62.

KRRVNHH gave an HA x ratio of 0.87.

In the case of RRMDNHH, the HA x ratio is reported as 0.63 and 1.00 and 0.79.

RRRDNHD was tested, and the HA x ratio was 0.55 and 0.60 and 0.30.

In the case of RRRVMHH, the HA x ratio is reported as 0.90.

RRRVNNH was tested, and the HA x ratio was 1.00.

Work on GRRVNHH yielded an HA x ratio of 0.37.

Work on RRRVNHF yielded an HA x ratio of 0.66.

Substance ARRVNHH has an HA x ratio of 0.61.

With RRFDNHH the HA x ratio was 0.56 and 0.46 and 0.45.

With RRPVNHK the HA x ratio was 1.14 and 0.99 and 0.62.

RRPVNHT was tested, and the HA x ratio was 0.76 and 1.24 and 0.77.

MRRVNHH was tested, and the HA x ratio was 0.73.

RRPVNHF was tested, and the HA x ratio was 1.54 and 1.38 and 2.67.

Work on RRRVNHS yielded an HA x ratio of 1.03.

For RRRVVHH, the HA x ratio was 1.27.
